Measured values reported in patent US9102648B1, “Bioavailable diacylhydrazine ligands for modulating the expression of exogenous genes via an ecdysone receptor complex” (Intrexon Corporation, priority 2003, dated 2015).
Where two headings read alike, the source gives them in different places.

Experiments:
[1] = molecular target: T1, Bombyx mori EcR (VP16 fusion, CVBE switch construct) (Bombyx mori, UniProt P49881); experiment: Z3 Assay (HEK-293 cells with CVBE and 6XEcRE LacZ, β-galactosidase reporter); details: for Fold Induction, Z3 Assay, 33 uM: 33 uM ligand; for Fold Induction, Z3 Assay, 33 uM / Fold Induction, Z3 Assay, 3.3 uM: ligand treated / DMSO treated cells; for Fold Induction, Z3 Assay, 3.3 uM: 3.3 uM ligand; for Z3 assay Rel Max FI: maximum fold induction at any concentration relative to that of GS-E ligand; for fold induction at 3.3 µM: HEK293, read-out: Fold Induction, Z3 Assay, 3.3 uM; for fold induction at 33 µM: HEK293, read-out: Fold Induction, Z3 Assay, 33 uM
T1 sequence (P49881 86-606): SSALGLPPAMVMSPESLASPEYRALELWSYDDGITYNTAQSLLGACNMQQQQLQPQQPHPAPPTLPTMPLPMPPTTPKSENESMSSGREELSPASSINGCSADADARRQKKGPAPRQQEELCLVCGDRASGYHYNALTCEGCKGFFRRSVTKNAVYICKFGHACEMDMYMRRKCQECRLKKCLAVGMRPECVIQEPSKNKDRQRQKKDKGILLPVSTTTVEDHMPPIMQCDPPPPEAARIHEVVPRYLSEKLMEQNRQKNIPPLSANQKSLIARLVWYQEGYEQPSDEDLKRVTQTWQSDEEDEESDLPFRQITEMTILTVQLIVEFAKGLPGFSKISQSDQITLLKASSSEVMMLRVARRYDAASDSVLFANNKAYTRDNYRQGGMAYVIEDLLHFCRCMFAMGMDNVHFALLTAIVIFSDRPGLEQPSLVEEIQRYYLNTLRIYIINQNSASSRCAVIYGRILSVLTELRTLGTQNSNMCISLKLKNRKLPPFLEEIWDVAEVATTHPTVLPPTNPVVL
T1 sequence (P19793 1-462 partner): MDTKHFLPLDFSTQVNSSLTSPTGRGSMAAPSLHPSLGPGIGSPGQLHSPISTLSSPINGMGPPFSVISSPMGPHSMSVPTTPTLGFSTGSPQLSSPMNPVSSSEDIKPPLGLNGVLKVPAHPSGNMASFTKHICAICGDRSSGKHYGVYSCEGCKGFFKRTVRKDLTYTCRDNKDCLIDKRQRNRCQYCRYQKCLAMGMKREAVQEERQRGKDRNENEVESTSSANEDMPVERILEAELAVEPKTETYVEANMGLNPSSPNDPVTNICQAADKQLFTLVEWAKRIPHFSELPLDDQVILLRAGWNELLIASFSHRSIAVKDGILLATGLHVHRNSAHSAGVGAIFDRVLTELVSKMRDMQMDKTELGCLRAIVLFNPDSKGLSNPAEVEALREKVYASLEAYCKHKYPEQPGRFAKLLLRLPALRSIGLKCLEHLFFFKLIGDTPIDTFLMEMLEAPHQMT

[2] = molecular target: GAL4 DBD-CfEcR(DEF)/VP16AD-MmRXRE (Choristoneura fumiferana, UniProt O77240); experiment: 13B3 Assay (CHO stable cell line, luciferase reporter); details: for Fold Induction, 13B3 Assay, 33 uM: 33 uM ligand; for Fold Induction, 13B3 Assay, 33 uM / Fold Induction, 13B3 Assay, 3.3 uM: RLU ligand treated / RLU DMSO treated cells; for Fold Induction, 13B3 Assay, 3.3 uM: 3.3 uM ligand; for 13B3 assay Rel Max FI: maximum fold induction at any concentration relative to that of GS-E ligand, CHO 13B3 cells; for fold induction at 3.3 µM: read-out: Fold Induction, 13B3 Assay, 3.3 uM; for fold induction at 33 µM: read-out: Fold Induction, 13B3 Assay, 33 uM
Procedure, shortened: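 Ligands dosed at 8 levels from 33 to 0.01 μM (DMSO stocks diluted 300-fold) onto the 13B3 CHO line carrying GAL4-DBD/CfEcR-DEF, VP16/MmRXR-DE and a GAL4-responsive luciferase gene.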

[3] = read-out: Z3 assay EC50, HEK-293 Z3 cells, β-galactosidase reporter, average of two wells
[4] = read-out: 13B3 EC50, CHO 13B3 stable cell line, luciferase reporter, 48 h, average of two wells

SMILES | Fold Induction, Z3 Assay, 33 uM ([1]; average of two wells) | EC50 [1, 3] [nM] | Fold Induction, 13B3 Assay, 33 uM ([2]; average of two wells) | Fold Induction, Z3 Assay, 3.3 uM ([1]; average of two wells) | Z3 assay Rel Max FI ([1]; HEK-293 Z3 cells) | Fold Induction, 13B3 Assay, 3.3 uM ([2]; average of two wells) | 13B3 assay Rel Max FI [2] | EC50 [2, 4] [nM] | EC50 [1] [nM] | fold induction at 3.3 µM [1] | fold induction at 33 µM [1] | EC50 [2] [nM] | fold induction at 3.3 µM [2] | fold induction at 33 µM [2]
CCc1c(C(=O)NN(C(=O)c2ccc(F)c(F)c2F)C(C)(C)C)ccc2c1OCCO2 [RG-115580] | 615 | 182 | 298 | – | – | – | – | – | – | – | – | – | – | –
COc1ccccc1C(=O)N(NC(=O)c1ccc2c(c1)OCCO2)C(C)(C)C [RG-100492] | 143 | 8130 | 1002 | – | – | – | – | – | – | – | – | – | – | –
CCc1c(C(=O)NN(C(=O)c2cc(F)ccc2F)C(C)(C)C)ccc2c1OCCO2 [RG-115508] | 680 | 537 | 191 | 199 | 0.787 | 310 | 0.805 | 849 | – | – | – | – | – | –
CCc1c(C(=O)NN(C(=O)c2ccc(Cl)cc2OC)C(C)(C)C)ccc2c1OCO2 [RG-115085] | 627 | 195 | 236 | – | – | – | – | – | – | – | – | – | – | –
CCc1c(OC)cccc1C(=O)NN(C(=O)c1ccc2c(c1)OCO2)C(C)(C)C [RG-100699] | 415 | 2090 | 2296 | – | – | – | – | – | – | – | – | – | – | –
CCc1c(OC)cccc1C(=O)NN(C(=O)c1cc(C)cc(C)c1)C(C)(C)CO[Si](C)(C)C(C)(C)C [RG-115665, 2-ethyl-3-methoxy-benzoic acid N′-[2-(tert-butyl-dimethyl-silanyloxy)-1,1-dimethyl-ethyl]-N′-(3,5-dimethyl-benzoyl)-hydrazide] | – | – | – | – | 0.09 | – | 0 | – | 12200 | 6 | 74 | > 50000 | 1 | –
CCc1c(OC)cccc1C(=O)NN(C(=O)c1cc(F)c(Cl)cc1Cl)C(C)(C)C [RG-115302] | 404 | 275 | 648 | – | – | 521 | 0.624 | 2000 | – | – | – | – | – | –
CCc1c(C(=O)NN(C(=O)c2cc(OC)c(C)c(OC)c2)C(C)(C)C)ccc2c1OCCO2 [RG-115130] | 930 | 36 | 511 | 412 | – | 987 | – | 512 | – | – | – | – | – | –
Cc1ccc(F)c(C(=O)N(NC(=O)c2ccc3c(c2C)CCCO3)C(C)(C)C)c1 [RG-115499] | 641 | 170 | 731 | 173 | 0.954 | 1182 | 0.489 | 328 | – | – | – | – | – | –
CCc1c(C(=O)NN(C(=O)c2cc(C)cc(Cl)c2)C(C)(C)C)ccc2c1OCCO2 [RG-101494, N-(5-ethyl-1,4-benzodioxan-6-carbonyl)-N′-(tert-butyl)-N′-(3-chloro-5-methylbenzoyl)hydrazine] | – | – | – | – | 1.093 | – | 0.822 | – | 79 | 832 | 384 | 148 | 755 | 613
CCc1ccc(C(=O)NN(C(=O)c2cc(C)cc(C)c2)C(C)(C)C)c(F)c1 [RG-101523, 3,5-Dimethyl-benzoic acid N-tert-butyl-N′-(4-ethyl-2-fluoro-benzoyl)-hydrazide] | – | – | – | – | – | – | 0.772 | – | 242 | 704 | 596 | 2370 | 831 | 718
